Measurements taken from ChEMBL document CHEMBL1144055, “Mathemycin B, a new antifungal macrolactone from actinomycete species HIL Y-8620959” (1999).

Key:
Assay type in all cases: functional
Botrytis cinerea [1] = test: Antimicrobial activity against Botrytis cinerea A06 assessed as drug concentration required to form 10 mm zone of inhibition by agar diffusion method
Fusarium culmorum = test: Antimicrobial activity against Fusarium culmorum assessed as drug concentration required to form 10 mm zone of inhibition by agar diffusion method
Parastagonospora nodorum = test: Antimicrobial activity against Leptosphaeria nodorum JO2 assessed as drug concentration required to form 10 mm zone of inhibition by agar diffusion method
Botrytis cinerea [2] = test: Antimicrobial activity against Botrytis cinerea DO1 assessed as drug concentration required to form 10 mm zone of inhibition by agar diffusion method
Alternaria mali = test: Antimicrobial activity against Alternaria mali P37 assessed as drug concentration required to form 10 mm zone of inhibition by agar diffusion method
Oculimacula yallundae = test: Antimicrobial activity against Pseudocercosporella herpotrichoides 008 assessed as drug concentration required to form 10 mm zone of inhibition by agar diffusion method
[3] = Antimicrobial activity against Pellicularia sasakii JO3 assessed as drug concentration required to form 10 mm zone of inhibition by agar diffusion method
Phytophthora infestans = test: Antimicrobial activity against Phytophthora infestans JO8 assessed as drug concentration required to form 10 mm zone of inhibition by agar diffusion method

Compound | MAC (Botrytis cinerea [1]) | MAC (Fusarium culmorum) | MAC (Parastagonospora nodorum) | MAC (Botrytis cinerea [2]) | MAC (Alternaria mali) | MAC (Oculimacula yallundae) | MAC [3] | MAC (Phytophthora infestans)
C/C1=C\C(C)C(O)/C(C)=C/C(O[C@H]2O[C@H](CO)[C@@H](O)[C@H](O[C@@H]3O[C@H](CO)[C@@H](O)[C@H](O)[C@@H]3O)[C@@H]2O)C(O)C(C)C(O)CC(O)CC(O)C(C)C(O)CC(O)CC(O)C(C)C(O)CC(O)CC(O[C@@H]2O[C@H](C)[C@@H](O)[C@H](N)[C@H]2O)C(C)C(C(C)CC(C)CCCCCCN)OC(=O)CCC(C)C(O)CC/C=C/C(C)C1O (some centres undefined) [MATHEMYCIN B] | 62.5 mg/L | 62.5 mg/L | 125 mg/L | 62.5 mg/L | 62.5 mg/L | 250 mg/L | 62.5 mg/L | –
MANCOZEB | – | – | – | – | – | – | – | 62.5 mg/L
maneb | – | – | – | – | – | 125 mg/L | – | –
